Key:
[1] = system: germinating lettuce seeds; test: Lettuce seed bioassay of EtOAC extracts of cell-free culture filtrates; conditions: IAA at 1 μg/ml
R. solani = type: cell-based; conditions: bioautography, Si gel scraped into agar plates inoculated with R. solani

Row | SMILES | Effect on germination of lettuce seeds [1] | Fungal inhibition (R. solani)
1 | O=C(O)Cc1c[nH]c2ccccc12 [IAA, indole-3-acetic acid] | inhibits the germination of lettuce seeds | 
2 | CC(=O)c1c(O)cc(O)c(C(C)=O)c1O [DAPG, 2,4-diacetylphloroglucinol] |  | Rhizoctonia
3 | O=[N+]([O-])c1c(Cl)cccc1-c1c[nH]cc1Cl [PRN, 3-chloro-4-[2′ nitro-3′-chlorophenyl]pyrrole] |  | Rhizoctonia

Source: patent US20100093538A1, “Pseudomonas Bacterium” (priority 2008, published 2010)
